Reference: the supplement of paper PMC4954754
± gives the uncertainty stated by the source.

Legend:
Details in all cases: 18 h
HEK293T-Rex XBP1-RLuc [1] = test: EC50 for XBP1-RLuc reporter activation
Procedure: (§1)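 Dose-response of hit compounds in HEK293T-Rex cells stably expressing ERSE-FLuc or XBP1-RLuc reporters, 18 hr treatment, 1536-well; luminescence normalised to 500 nM thapsigargin (100%) and DMSO (0%), fitted to give EC50 (M) and maximal activation; '>' marks EC50 above the top tested dose (~17 µM).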

HEK293T-Rex ERSE-FLuc [2] = test: maximal ERSE-FLuc activation from dose-response fit, relative to thapsigargin (% of thapsigargin); higher = stronger activation
Procedure: as §1

HEK293T-Rex ERSE-FLuc [3] = test: EC50 for ERSE-FLuc reporter activation
Procedure: as §1

HEK293T-Rex XBP1-RLuc [4] = test: maximal XBP1-RLuc activation from dose-response fit, relative to thapsigargin (% of thapsigargin); higher = stronger activation
Procedure: as §1

SMILES | EC50 for XBP1-RLuc reporter activation (HEK293T-Rex XBP1-RLuc [1]) [µM] | maximal ERSE-FLuc activation (HEK293T-Rex ERSE-FLuc [2]) | EC50 for ERSE-FLuc reporter activation (HEK293T-Rex ERSE-FLuc [3]) [µM] | maximal XBP1-RLuc activation (HEK293T-Rex XBP1-RLuc [4])
N#CC1=C(N)Oc2c(ccc3ccccc23)C1c1ccccc1 (stereo unspecified) | > 16.9 | 15.5 ± 0.4 | > 16.9 | 7.34 ± 1.6
CCc1cc2c(=O)c(-c3ccc4c(c3)OCCO4)coc2cc1OC | > 15 | 31.2 ± 5.7 | > 15 | 14.1 ± 1.5
Cc1cc(C)c2nc3sc(C(=O)N4CCCCC4)c(N)c3cc2c1 | > 16.9 | 34 ± 5.5 | > 16.9 | 13.4 ± 1.4
O=C(COC(=O)c1cc(O)c(O)c(O)c1)Nc1ccc(Br)cc1F | > 16.9 | 41.7 ± 3.5 | > 16.9 | 26.4 ± 2.7
O=C(N/N=C/c1ccc(Cl)cc1)c1n[nH]c2c1CCCC2 | > 16.9 | 21.7 ± 1.7 | > 16.9 | 6.88 ± 3.1
O=c1[nH]c(/C=C2\C=Nc3ccccc32)c(O)n1-c1cccc(Cl)c1 | 2.18 | 67.9 ± 1 | 2.5 | 74.9 ± 7.7
CCN1C(=O)/C(=C\c2ccc(O)cc2O)SC1=S | > 16.9 | 30.9 ± 10 | > 16.9 | 13.3 ± 1.5
CC(C)CC(c1nnnn1C1CCCC1)N1CCN(C(=O)c2ccco2)CC1 (stereo unspecified) | > 16.9 | 14.3 ± 1.5 | > 16.9 | 8.89 ± 0.66
CCC(=O)N(Cc1cc2cc(C)ccc2n2nnnc12)C1CCCC1 | > 16.9 | 20.1 ± 5.6 | > 16.9 | 1.64 ± 4.2
COc1ccc(/C=C(\C#N)c2nc(-c3ccco3)cs2)cc1O | > 16.7 | 32.9 ± 2.9 | > 16.7 | 14.5 ± 4.2
NC(=O)c1c(NC(=O)COc2ccccc2)sc2c1CCC2 | > 13.2 | 16.2 ± 1.4 | > 13.2 | 2.55 ± 0.7
Oc1ccc(-c2csc3nc(-c4ccccc4)nn23)c(O)c1 | > 16.9 | 30.1 ± 2.2 | > 16.9 | 32.4 ± 1.3
COc1cccc(Nc2nc(-c3ccc(OC)c(F)c3)cs2)c1 | > 16.9 | 19.7 ± 3.5 | > 16.9 | 3.68 ± 1.6
Nc1ccc2nc(-c3cc(Cl)c(N)c(Cl)c3)[nH]c2c1 | > 13 | 22.7 ± 10 | > 13 | 13.1 ± 1.1
COc1ccc(/C=C2\SC(=O)NC2=Nc2ccc(C)cc2)c(OC)c1 | > 13 | 18.2 ± 3.2 | > 13 | 3.27 ± 1.6
Oc1cccc(/C=N/Nc2ccc(Cl)nn2)c1O | > 17.9 | 41.7 ± 1.8 | > 17.9 | 19.4 ± 1
Cc1ccc(O)c(N=CC2=C(O)c3ccccc3C2=O)c1 | > 16.9 | 74.8 ± 16 | 3.75 | 35.5 ± 4.2
CCCCNC(=O)c1cc(-c2ccc(F)cc2)on1 | > 16.9 | 68.7 ± 8.5 | 12.2 | 9.22 ± 4.7
C(=C\c1ccccc1)/C=N/Nc1nc2ccccc2[nH]1 | > 18 | 25.5 ± 3.7 | > 18 | 22.2 ± 2
CC(C)CNC(=O)c1cc(-c2ccc(F)cc2)no1 | > 16.9 | 20.8 ± 5.8 | > 16.9 | 4.76 ± 1.8
COc1cccc(/C=N/NC(=O)c2ccc(NC(=O)c3ccc(C)cc3)cc2)c1O | > 16.9 | 6.5 ± 1.7 | > 16.9 | 1.01 ± 1.2
Cc1ccc(O)c(NC(=O)c2cc(-c3ccc(F)cc3)on2)c1 | > 16.9 | 31 ± 7.9 | > 16.9 | 18.8 ± 3.2

SMILES | EC50 for XBP1-RLuc reporter activation (HEK293T-Rex XBP1-RLuc [1]) [µM] | maximal ERSE-FLuc activation (HEK293T-Rex ERSE-FLuc [2]) | EC50 for ERSE-FLuc reporter activation (HEK293T-Rex ERSE-FLuc [3]) [µM] | maximal XBP1-RLuc activation (HEK293T-Rex XBP1-RLuc [4])
CC(C)c1ccc(NC(=O)/C=C/c2ccco2)cc1 | > 17.2 | 21.5 ± 4.6 | > 17.2 | 7.59 ± 2.4
Nc1nc(Nc2ccccc2)cc(-c2ccccc2)n1 | > 17.2 | 25.8 ± 9.6 | > 17.2 | 3.36 ± 1.2
N#Cc1c(NC(=O)c2ccc3c(c2)OCO3)sc2c1CCCC2 | > 16.9 | 18.3 ± 3.2 | > 16.9 | 1.79 ± 3.7
Cc1ccc(C)c(/C=N/Nc2nncc3ccccc23)c1 | > 17.1 | 26.4 ± 5.4 | > 17.1 | 8.33 ± 1.1
O=[N+]([O-])c1ccc(N/N=C/c2ccccc2O)cc1 | 13 | 44.5 ± 7.8 | > 16.9 | 68.9 ± 7.5
COc1ccc(C(=O)Nc2nnc(-c3cccs3)s2)cc1 | > 16.9 | 18.8 ± 1.5 | > 16.9 | 1.9 ± 0.9
CCCNC(=O)c1cc(-c2cccs2)on1 | > 16.9 | 92.7 ± 11 | 7.59 | 9.95 ± 1.4
CCc1ccc(NC(=O)/C=C/c2ccco2)cc1 | > 16.8 | 19.3 ± 2.3 | > 16.8 | 4.4 ± 8.8
Cc1ccc(/C=N/NC(=O)c2cccc(Cl)c2)cc1 | > 16.9 | 36.9 ± 7.8 | > 16.9 | 3.19 ± 1.2
OCCNc1nc(Nc2ccc(Cl)cc2)nc2ccccc12 | 9.68 | 155 ± 12 | 6.19 | 87.4 ± 1.1
CC(Oc1ccc(Cl)cc1Cl)C(=O)NNC(=O)c1ccc(O)c(O)c1 (stereo unspecified) | > 14.9 | 50 ± 8.3 | > 14.9 | 45.2 ± 5.7
O=C(N/N=C/c1cccc(O)c1O)c1ccccc1I | > 16.9 | 39.5 ± 4.5 | > 16.9 | 17.8 ± 3.8
COc1ccccc1/C=C/C(=O)Nc1ccc(Cl)cn1 | > 15.1 | 27.3 ± 3.7 | > 15.1 | 8.83 ± 0.86
Cc1ccc(O)c(NC(=O)c2cc(CC(C)C)on2)c1 | > 16.9 | 89.2 ± 8 | 3.94 | 37.2 ± 9.3
Nc1ccc2nc(/C=C/c3ccco3)[nH]c2c1 | > 16.9 | 27.4 ± 2.5 | > 16.9 | 32.3 ± 1.3
O=C(c1ccccc1)c1c(O)ccc2c(C(=O)c3ccccc3)c(O)ccc12 | > 12.5 | 32.5 ± 3.7 | > 12.5 | 34.9 ± 1.1
O=C(CCCCCCC(=O)Nc1ccccc1)NO | > 16.9 | 132 ± 25 | 6.58 | 3.17 ± 2.9
NC(=O)c1c(NC(=O)/C=C/c2ccccc2)sc2c1CCCCC2 | > 16.9 | 22.6 ± 3.1 | > 16.9 | 3.01 ± 2.8
O=C1N/C(=C/c2ccc(O)cc2)C(=O)N1c1cccc(Cl)c1 | 3.04 | 85.8 ± 20 | 3.19 | 100 ± 3
Oc1ccc(/C=N/Nc2cccc3cccnc23)c(O)c1 | 9.41 | 36.6 ± 4.9 | > 16.9 | 53.6 ± 5.7
O=[N+]([O-])c1ccc(/C=C/c2ccc(O)cc2)cc1 | 12.4 | 25.8 ± 4.6 | > 15.3 | 53.3 ± 4.7
CC(=O)Oc1cc(N2CCOCC2)c(OC(C)=O)c2c1C(=O)c1ccccc1C2=O | > 16.9 | 9.5 ± 2.7 | > 16.9 | 3.44 ± 3.3
